Laboratory results as given in US20080274121A1, “Inhibition of Angiogenesis by Mithramycin” (priority 2007, published 2008).
“Also recorded” adds a separate entry of the source.

Columns and labels:
BxPC3 cells [1] = assay: Viable cell count in vitro, BxPC3; type: cell-based, human; details: 100 μg/ml BVZ
Experimental: FIG. 14. Effects of treatment with BVZ and MIT on the growth of and gene expression in human pancreatic cancer cells in vitro. (A) BxPC3 and (B) PANC-1 cells were incubated for 1 to 5 days in a medium alone or a medium containing 100 μg/ml BVZ. The viable cells were counted every 24 hours. C, PANC-1 cells were incubated for 6 to 48 hours in a medium alone or a medium containing 100 μg/ml BVZ. Total protein lysates were harvested from the cell cultures, and the level of Sp1, EGFR, and VEGF protein expression was determined using Western blot analysis. Equal protein-sample loading was monitored by probing the same membrane filter with an anti-glyceraldehyde-3-phosphate dehydrogenase antibody (GAPDH). D and E, PANC-1 cells were treated with MIT at concentrations ranging from 0.1 to 1.2 μM for 24 and 48 hours. (D) Cytotoxicity was assessed using the MTT assay, and (E) the level of gene expression was determined using Western blot analysis. NS, nonspecific.
Effects of treatment with BVZ and MIT on the growth of and gene expression in human pancreatic cancer cells. To further determine whether treatment with BVZ directly impacts gene expression in pancreatic cancer cells, we incubated PANC-1 and BxPC3 cells in a medium alone or a medium containing 100 μg/ml BVZ for 6 to 48 hours.

BxPC3 cells [2] = assay: BxPC3 subcutaneous xenograft, tumor volume and body weight; type: in vivo, nude mice
Source text: FIG. 10. Dose-dependent antitumor effects of BVZ and MIT in xenograft models of human pancreatic cancer. […] C and D, the control mice and mice that received (C) BVZ and (D) MIT were weighed at the time of experiment termination, and the weights were expressed as the mean±SD.
FIG. 11. Synergistic antitumor effects of treatment with BVZ and MIT in xenograft models of human pancreatic cancer. […] C, representative tumor sizes in each group of BxPC3 model mice.
To determine whether this takes place, we treated pancreatic cancer in nude mice with BVZ, MIT, or a combination of the two (B+M). Specifically, we first performed dose-response experiments. We injected BxPC3 cells subcutaneously into nude mice.
Next, we performed experiments using both BxPC3 and PANC-1 tumor cell models in which we administered PBS, BVZ (25 μg), MIT (0.10 mg/kg), or B+M to a group of nude mice.

[3] = system: Sp1 recruitment into the Sp1 promoter; assay: ChIP assay, PANC-1 cells in vitro; type: cell-based, human; details: 100 μg/ml BVZ or 0.1 μM MIT, 2 days
Experimental: FIG. 15. Effects of treatment with BVZ and MIT on Sp1 recruitment into the Sp1 promoter in human pancreatic cancer cells in vitro and in vivo. A, schematic structures of the minimal Sp1 promoters. The nucleotide positions and sequences of Sp1-binding sites and polymerase chain reaction forward and reverse primers flanking those sites for ChIP assay are shown. B, Sp1 and VEGF promoter reporter constructs were transfected into PANC-1 cells in triplicate and incubated for 12 hours. The cells were then incubated for another 24 hours in a medium alone or a medium containing 100 μg/ml BVZ or 0.1 μM MIT. Total protein lysates were harvested from the cell cultures for measurement of Sp1 and VEGF promoter activity using a luciferase assay kit. The relative Sp1 and VEGF promoter activities were assessed, and the activity in treated groups was expressed as the fold change of that in their respective control groups. C and D, chromatin was extracted from (C) PANC-1 cells that were incubated in vitro for 2 days in a medium alone or a medium containing 100 μg/ml BVZ or 0.1 μM MIT and (D) tumors formed by PANC-1 cells in nude mice that received treatment as described in FIG. 2A. […]

H727 cells = assay: Viable cell count in vitro, H727; type: cell-based, human; details: 0 to 100 μg/ml BVZ, 5 days
Experimental: FIG. 18. Effects of treatment with BVZ and MIT on the growth of and gene expression in human carcinoid cells in vitro. A. H727 and BON-1 cells were incubated for 5 days in a medium alone or a medium containing 25 to 100 μg/ml BVZ. The viable cells were counted. B. H727 cells were incubated for 5 days in a medium alone or a medium containing 100 μg/ml BVZ. Total protein lysates were harvested from the cell cultures, and the level of Sp1 and VEGF protein expression was determined using Western blot analysis. Equal protein-sample loading was monitored by probing the same membrane filter with an anti-GAPDH. C. H727 and BON-1 cells were treated with MIT at concentrations ranging from 0.1 to 2.5 μM for 24 hours. Cytotoxicity was assessed using the MTT assay.
Effects of treatment with BVZ and MIT on the growth of and gene expression in human LGNET cells. To further determine whether treatment with BVZ directly impacts gene expression in LGNET cells, we incubated H727 and BON-1 cells in a medium alone or a medium containing 0 to 100 μg/ml BVZ for 5 days.

BON-1 cells = assay: BON-1 carcinoid subcutaneous xenograft
Experimental: H727 and BON-1 cells were injected into the subcutis of nude mice (n=5). When tumors reached around 4 mm in diameter, the animals received different doses of MIT (0.10 [M-10], 0.20 [M-20], and 0.40 [M-40] mg/kg) via intraperitoneal injection twice a week. Tumors were measured once every week, and at each measurement, the mean±standard deviation (SD) tumor volume in the five mice in each group was calculated (A).
H727 and BON-1 cells were injected subcutaneously into nude mice. […] A. Tumors were measured once every week, and at each measurement, the mean±SD tumor volume in the five mice in each group was calculated. B. Mouse body weights were measured. The asterisks indicate the statistical significance (P<0.01) in a comparison between the treated and respective control groups.
Mithramycin-A (MIT, 1 mg/vial crystal powder; lot 055K4011) was purchased from Sigma Chemical Co. (St. Louis, Mo.) and diluted in sterile water. BVZ (25 mg/ml; NDC 50242-060-01) from Genentech, Inc. (South San Francisco, Calif.) was purchased. For animal experiments, MIT (0.1 to 0.4 mg/kg body weight) and BVZ (25 to 100 μg/mouse) were administered by intraperitoneal or subcutaneous injections twice a week or as otherwise stated.
Female athymic BALB/c nude mice were purchased from The Jackson Laboratory (Bar Harbor, Me.). The mice were housed in laminar flow cabinets under specific pathogen-free conditions and used when they were 8 weeks old.
H727 and BON-1 tumor cells were injected into the subcutis of mice as described in the Materials and Methods. […] Moreover, the residual tumors were harvested and angiogenesis was assessed by CD31 staining.
Synergistic antitumor effects of BVZ and MIT in human LGNET model. […] To test this hypothesis, we determined whether modulating Sp1 expression and/or activity impacts the efficacy of anti-angiogenic treatment of BVZ. […]
H727 and BON-1 cells were injected subcutaneously into nude mice and then administered treatment to them as described in FIG. 20. We monitored animal survival daily until termination of the experiment 160 days after tumor-cell injection.

## bevacizumab [BVZ]
BxPC3 cells [1]
  cell growth in vitro: did not affect the growth
BxPC3 cells [2]; BVZ 25 μg, MIT 0.10 mg/kg, or B+M
  antitumor activity at low dose: slight antitumor effects; also recorded: marginal antitumor activity
BxPC3 cells [2]; BVZ 25, 50, 100 μg, MIT 0.1, 0.2, 0.4 mg/kg, i.p. twice a week
  antitumor activity, dose-response: suppressed human pancreatic cancer growth
BxPC3 cells [2]; BVZ alone, 25-100 μg
  body weight: no discernable effect on body weight
[3]
  Sp1 recruitment to its own promoter: did not affect Sp1 recruitment
H727 cells
  cell growth in vitro: did not affect the growth
BON-1 cells; BVZ 25 μg, MIT 0.10 mg/kg, alone or combined, i.p. twice a week
  antitumor activity at low dose: marginal antitumor activity
BON-1 cells; BVZ alone
  body weight: no discernable effects on body weight
BON-1 cells; compared with PBS, 160 days
  animal survival: slightly increased survival rate
